US20180132483A1, “Method of Controlling Phytoparasitic Pests, Agrochemical Composition and Use Thereof” (priority 2016, published 2018)

Tested on: soil Fusarium sp.
Test: Activity against soil Fusarium sp.

CC(=O)O.CCCCCCCCCCCCNC(=N)N [dodine, 1-dodecylguanidinium acetate]
Activity against soil Fusarium sp.: active
